The text below walks through data of patent publication US20150209281A1, “LIPOSOMAL COMPOSITIONS OF EPOXYKETONE-BASED PROTEASOME INHIBITORS” (ONYX THERAPEUTICS, INC., priority 2012, published 2015).

In brackets after ≈: the same amount, converted by molar mass. Where two headings read alike, the source gives them in different places. A value given as a limit tells only on which side of the number the result lay.

In general, solubility refers to how much of the substance goes into solution per volume.

The nature of the data set: Aqueous solubility of carfilzomib. The class given is physicochemical.

As for `CC(C)C[C@H](NC(=O)[C@H](CCc1ccccc1)NC(=O)CN1CCOCC1)C(=O)N[C@@H](Cc1ccccc1)C(=O)N[C@@H](CC(C)C)C(=O)[C@@]1(C)CO1` [carfilzomib], the solubility was about 1800 µg/mL (≈ 2500 µM) (30 °C, simulated gastric fluid, thermodynamic from solid, 0.1M HCl aqueous solution, ~pH 1, read-out: Approximate carfilzomib solubility at pH 1) and under 1 µg/mL (aqueous medium, read-out: aqueous solubility).
